Molecular target: T1, MyD88^TIR (Homo sapiens, UniProt Q99836)
T1 construct: MyD88 (residues 148–296); 6xHis; made in house; host or cells: E. coli BL21 (DE3)
Experiment: T‐Surf phage library (P8 and P3) selection against MyD88^TIR, four rounds, NGS read counts
Format: binding
Conditions: for P3_MyD88 Rank (after) / P3_MyD88 Rank (before): P3 library; for P8_MyD88 Rank (after) / P8_MyD88 Rank (before): P8 library; for Population: 4th round of selection against MyD88 TIR, share of NGS reads
Protocol: T‐Surf libraries were screened against the immobilized TIR domains of two major human TLR adaptor proteins, MAL^TIR and MyD88^TIR, allowing cross‐species selection of TIR‐binding motifs with 190 946 TIR‐derived peptides in a single binding assay (Scheme 1). Enriched phage pools from the fourth round of selection were analyzed using NGS after barcoding the peptide‐coding regions of the phage pools.
Phage display screening was performed by coating two wells of a 96‐well plate (Maxisorp, Thermo Fisher Scientific) with 100 µL of 5 µg mL^−1 TIR domains overnight; then, the coated wells were blocked with 200 µL of blocking buffer (0.2% BSA in PBS) and set aside for 1 h at 4 °C with gentle shaking. Next, 100 µL of the phage library was added to the wells and incubated for 1 h at room temperature (RT; 20 – 22 °C) with gentle shaking. The plate was washed four times with PBS containing 0.5% Tween‐20; the bound phages were eluted by adding 100 µL of 100 mM HCl to each well. The elute was neutralized with 10 µL of 1.0 M Tris‐HCl (pH 11.0). E. coli TG1 cells were grown to the log phase (A600 = ≈0.6), and 1 mL of the culture was incubated with 100 µL of the eluted phages for 30 min at 37 °C, with shaking at 200 rpm. Next, 1 µL of M13KO7 helper phages was added, followed by incubation for 45 min at 37 °C, with shaking. Subsequently, the cells were transferred to 25 mL of 2× yeast extract tryptone/carbenicillin/kanamycin medium and incubated overnight at 37 °C with shaking at 200 rpm. The amplified phages were precipitated with 20% PEG‐8000/2.5 M NaCl to be used for the next round of selection.
The naïve T‐Surf libraries in P8 and P3 and the enriched phage pools after four rounds were barcoded for NGS as previously described.^[ [59] ^] Briefly, 5 µL of the phage pool was used as a template for 20 cycles of a 50 µL PCR reaction using […] each of forward and reverse barcoded primers and PrimeSTAR Max DNA Polymerase. The PCR products were purified using Expin Gel SV (GeneAll). The NGS samples were quantified using qPCR, following the qPCR Quantification Protocol Guide (KAPA Library Quantification kits for Illumina Sequencing Platform), and qualified using the TapeStation High Sensitivity D1000 ScreenTape (Agilent Technologies). The indexed libraries were further sequenced by Macrogen (Seoul, Republic of Korea) using the NovaSeq platform (Illumina) with 100 bp paired‐end reads. The reads were demultiplexed by barcodes and filtered for an average Phred quality score of at least 30, followed by trimming the flanking consensus sequences using Cutadapt (version 2.3). Peptide sequence populations were analyzed according to the read counts.

[1] = P3_MyD88: rank by count after grouping
[2] = P3_MyD88: rank by count before grouping
[3] = 4R selection against MyD88, rank after grouping
[4] = 4R selection against MyD88, rank before grouping
[5] = selection against MyD88, rank after grouping
[6] = selection against MyD88, rank before grouping
[7] = P8_MyD88: rank by count after grouping
[8] = P8_MyD88: rank by count before grouping
[9] = selection against MyD88, rank by count after grouping
[10] = selection against MyD88, rank by count before grouping
[11] = P8_MyD88: rank by NGS read count after grouping
[12] = P8_MyD88: rank by NGS read count before grouping
[13] = P8_MyD88 pool: P8 T-Surf phage library
[14] = selection against MyD88 TIR, rank by count after grouping
[15] = selection against MyD88 TIR, rank by count before grouping
[16] = P3_MyD88 pool: P3 T-Surf phage library

T1 sequence (Q99836 148-296): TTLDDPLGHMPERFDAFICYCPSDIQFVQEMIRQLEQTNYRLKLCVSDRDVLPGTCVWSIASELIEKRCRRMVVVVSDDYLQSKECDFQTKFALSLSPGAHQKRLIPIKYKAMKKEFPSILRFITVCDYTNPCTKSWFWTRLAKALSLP

SRYREGLWRLLELSKK
Rank (after) [1]: 123
Rank (before) [2]: 3109

KLDSAMIIKVQRWREA
P3_MyD88 Rank (after) [3]: 618
P3_MyD88 Rank (before) [4]: 3698

EIVKFVLAKLVHLEHP
Rank (after) [1]: 409
Rank (before) [2]: 2224

DPLVMVWLYVRPVSLF
P8_MyD88 Rank (after) [5]: 556
P8_MyD88 Rank (before) [6]: 2609

DWAWDYLLPNLEGSAG
Rank (after) [7]: 432
Rank (before) [8]: 2483

WALVELLHIRHARELF
P8_MyD88 Rank (after) [9]: 709
P8_MyD88 Rank (before) [10]: 1405

ELDFSHFWLFDGQAGGAA
Rank (after) [11]: 917
Rank (before) [12]: 3182

LGYHWIDWEYFVGIEDPIT
P8_MyD88 Rank (after) [3]: 660
P8_MyD88 Rank (before) [4]: 3261

QYLRWPEDFQDVGWFL
Rank (after) [7]: 144
Rank (before) [8]: 161
Population [13]: 0.00925%

DPQDLDRSYERLVSLC
P8_MyD88 Rank (after) [3]: 670
P8_MyD88 Rank (before) [4]: 2842

DPQDLDWFYERLVSL
P8_MyD88 Rank (after) [14]: 233
P8_MyD88 Rank (before) [15]: 716

YTALINSGFHTFRDNH
P3_MyD88 Rank (after) [14]: 273
P3_MyD88 Rank (before) [15]: 1637

DPQVRDWFYERAVSLF
Rank (after) [7]: 452
Rank (before) [8]: 2660

AVDIETEKIQTPLKNA
Rank (after) [1]: 157
Rank (before) [2]: 1891

YTALANSGCHTFRDND
Rank (after) [1]: 397
Rank (before) [2]: 1635

YLRRSVFQTMLARRTE
Rank (after) [11]: 899
Rank (before) [12]: 2077

YNFISHLYDALRLNKIETF
P3_MyD88 Rank (after) [14]: 271
P3_MyD88 Rank (before) [15]: 896

IDDDHLTYLVRLLLS
P8_MyD88 Rank (after) [3]: 597
P8_MyD88 Rank (before) [4]: 3635

LVANEISKKIKIFAII
P3_MyD88 Rank (after) [5]: 533
P3_MyD88 Rank (before) [6]: 2319

WALNELLKILYANETM
Population [13]: 0.0108%

EWGDPYFWSKLRYAM
P3_MyD88 Rank (after) [9]: 695
P3_MyD88 Rank (before) [10]: 2125

LGYKRIDWEYFVGIED
P8_MyD88 Rank (after) [5]: 573
P8_MyD88 Rank (before) [6]: 3354

DGGWDYLLPNVEGPAC
P8_MyD88 Rank (after) [9]: 760
P8_MyD88 Rank (before) [10]: 2560

WDFASNMNSFGIVCI
Rank (after) [11]: 974
Rank (before) [12]: 1628

RLLKWKEALHQFHSLVG
P3_MyD88 Rank (after) [14]: 277
P3_MyD88 Rank (before) [15]: 2580

YLKWGSPWFWDRLRFGPIGQ
P3_MyD88 Rank (after) [5]: 568
P3_MyD88 Rank (before) [6]: 1571

DPPELDWFYERLFSLF
Rank (after) [11]: 971
Rank (before) [12]: 2627

YLLLGVFQTIFARRTA
P8_MyD88 Rank (after) [14]: 276
P8_MyD88 Rank (before) [15]: 1965

DRSIWDRLLYSLHVTE
Rank (after) [11]: 996
Rank (before) [12]: 3141

DPQDLQWFYERLVSLMASGI
P8_MyD88 Rank (after) [5]: 494
P8_MyD88 Rank (before) [6]: 2920

CLLLSVFQTLFARRTE
Rank (after) [11]: 877
Rank (before) [12]: 1353

DPQALDWFYERLVRLF
P8_MyD88 Rank (after) [14]: 279
P8_MyD88 Rank (before) [15]: 2689

KWFWDKLKYALPHRYEP
Rank (after) [1]: 128
Rank (before) [2]: 790

SWAVDELLKILQAWDE
Rank (after) [7]: 137
Rank (before) [8]: 151
Population [13]: 0.0108%

PEKDNGGEIAFINNLV
P3_MyD88 Rank (after) [5]: 547
P3_MyD88 Rank (before) [6]: 2710

WALDLDWFYERLVSLF
P8_MyD88 Rank (after) [14]: 225
P8_MyD88 Rank (before) [15]: 426

ELDFSHFWLFDGHATGAA
Rank (after) [11]: 1003
Rank (before) [12]: 3187

NQWLNSLTAPANPSDW
Rank (after) [1]: 396
Rank (before) [2]: 3469

DIADEDLPYLIRLLYSL
Rank (after) [11]: 955
Rank (before) [12]: 3056

WALVVLLQILHARELF
P8_MyD88 Rank (after) [5]: 490
P8_MyD88 Rank (before) [6]: 1403

SSFCEGLWRLLELSKK
Population [16]: 0.00437%

WALNELLEILKAREDI
Rank (after) [7]: 115
Rank (before) [8]: 123
Population [13]: 0.0173%

MFGGDPLHDFLDLISL
P8_MyD88 Rank (after) [3]: 592
P8_MyD88 Rank (before) [4]: 3655

NVHESEIIKEIVDTIV
Population [16]: 0.00291%

DPQDQEWFYERLFSHV
Rank (after) [7]: 438
Rank (before) [8]: 2970

LGYRWIVWEYFVGIED
Rank (after) [7]: 400
Rank (before) [8]: 3224

TSHLHHAPRPNEIETL
P3_MyD88 Rank (after) [3]: 653
P3_MyD88 Rank (before) [4]: 3323

YLKWGYPWFWDRLRFA
P8_MyD88 Rank (after) [5]: 571
P8_MyD88 Rank (before) [6]: 2084

SSFHEGLWRMLELSKK
P3_MyD88 Rank (after) [9]: 737
P3_MyD88 Rank (before) [10]: 3250

NQWRFGSKVDAWKAAL
P3_MyD88 Rank (after) [5]: 577
P3_MyD88 Rank (before) [6]: 3470

DWGWGYLLPNLEGPAG
P8_MyD88 Rank (after) [9]: 707
P8_MyD88 Rank (before) [10]: 2481

YPQDLDWFYERLVSQF
P8_MyD88 Rank (after) [9]: 719
P8_MyD88 Rank (before) [10]: 2097

PQDLEWFYERLVTHVLLRHL
P8_MyD88 Rank (after) [5]: 566
P8_MyD88 Rank (before) [6]: 3461

PQDQEWFYERMVSLIL
P8_MyD88 Rank (after) [5]: 517
P8_MyD88 Rank (before) [6]: 3491

LGYHWIDWEYYVGIEN
Rank (after) [11]: 992
Rank (before) [12]: 3275

DPQGLDWYYVRLVSLL
Rank (after) [11]: 926
Rank (before) [12]: 2666

KEVEVWRDALTKVVGL
P3_MyD88 Rank (after) [9]: 713
P3_MyD88 Rank (before) [10]: 3606

YLLLSVLHTRSARGYV
Rank (after) [11]: 925
Rank (before) [12]: 2010

DIEYIHLFWDRLLYSL
P8_MyD88 Rank (after) [5]: 526
P8_MyD88 Rank (before) [6]: 3060

NELVQVWSSKANSLVR
P3_MyD88 Rank (after) [9]: 693
P3_MyD88 Rank (before) [10]: 3400

DSLFWDRLLYSLHVTD
Population [13]: 0.00732%

IVQEQDGFWVRLIEAL
P8_MyD88 Rank (after) [3]: 616
P8_MyD88 Rank (before) [4]: 3611

NELVHVWSSKANIRVC
P3_MyD88 Rank (after) [9]: 718
P3_MyD88 Rank (before) [10]: 3399

YALTGHKHRYMVQRGV
P3_MyD88 Rank (after) [14]: 193
P3_MyD88 Rank (before) [15]: 1554

LKVEIWLQTLEKAEKP
Rank (after) [1]: 440
Rank (before) [2]: 2472

WALDELLQILNAREMF
Rank (after) [7]: 415
Rank (before) [8]: 1464

PQDLDWFYERLVSLL
Rank (after) [7]: 101
Rank (before) [8]: 120
Population [13]: 0.0189%

SLRKNVVSNLLEEFKR
P3_MyD88 Rank (after) [5]: 524
P3_MyD88 Rank (before) [6]: 3079

LGYHWIDWAYFVGIEE
P8_MyD88 Rank (after) [14]: 242
P8_MyD88 Rank (before) [15]: 3250

YASSSWALNELPRILY
Rank (after) [7]: 389
Rank (before) [8]: 1902

HWIDWEYFVALKIIL
Rank (after) [7]: 427
Rank (before) [8]: 1236

DTKLKKGRKHCAGTAA
Rank (after) [1]: 454
Rank (before) [2]: 2099

DPQDREWFYERLVSLF
P8_MyD88 Rank (after) [14]: 277
P8_MyD88 Rank (before) [15]: 2957

YITWFEDFQQILLFWI
Rank (after) [11]: 924
Rank (before) [12]: 2117

DPQDLEWFYERLFSLI
P8_MyD88 Rank (after) [14]: 209
P8_MyD88 Rank (before) [15]: 1112

IDDDHLTYLVRLLQIA
P8_MyD88 Rank (after) [9]: 761
P8_MyD88 Rank (before) [10]: 3637

DFSHFWLFEARGDA
Rank (after) [7]: 387
Rank (before) [8]: 2381

DPQLLDWFYVRLVSLL
Rank (after) [11]: 1001
Rank (before) [12]: 3022

KNLFNELVSKNIVPL
P3_MyD88 Rank (after) [9]: 686
P3_MyD88 Rank (before) [10]: 3755

KNLLNELVSKTIRTFM
Rank (after) [1]: 470
Rank (before) [2]: 3790

RFWERLRPALKERLP
Rank (after) [1]: 449
Rank (before) [2]: 2551

DIQWALQKLMQIMEAF
P8_MyD88 Rank (after) [9]: 676
P8_MyD88 Rank (before) [10]: 3070
